From patent US20050100983A1, “Cell-free methods for identifying compounds that affect toll-like receptor 9 (TLR9) signaling” (Coley Pharmaceutical GmbH, priority 2003, published 2005) come the findings set out here.

Test [1] deals with T1, TLR9-CpG-DNA interaction (Mus musculus, UniProt Q9EQU3).
T1 construct: mTLR9ect (aa 1-816); made in house
T1 sequence (Q9EQU3 26-816): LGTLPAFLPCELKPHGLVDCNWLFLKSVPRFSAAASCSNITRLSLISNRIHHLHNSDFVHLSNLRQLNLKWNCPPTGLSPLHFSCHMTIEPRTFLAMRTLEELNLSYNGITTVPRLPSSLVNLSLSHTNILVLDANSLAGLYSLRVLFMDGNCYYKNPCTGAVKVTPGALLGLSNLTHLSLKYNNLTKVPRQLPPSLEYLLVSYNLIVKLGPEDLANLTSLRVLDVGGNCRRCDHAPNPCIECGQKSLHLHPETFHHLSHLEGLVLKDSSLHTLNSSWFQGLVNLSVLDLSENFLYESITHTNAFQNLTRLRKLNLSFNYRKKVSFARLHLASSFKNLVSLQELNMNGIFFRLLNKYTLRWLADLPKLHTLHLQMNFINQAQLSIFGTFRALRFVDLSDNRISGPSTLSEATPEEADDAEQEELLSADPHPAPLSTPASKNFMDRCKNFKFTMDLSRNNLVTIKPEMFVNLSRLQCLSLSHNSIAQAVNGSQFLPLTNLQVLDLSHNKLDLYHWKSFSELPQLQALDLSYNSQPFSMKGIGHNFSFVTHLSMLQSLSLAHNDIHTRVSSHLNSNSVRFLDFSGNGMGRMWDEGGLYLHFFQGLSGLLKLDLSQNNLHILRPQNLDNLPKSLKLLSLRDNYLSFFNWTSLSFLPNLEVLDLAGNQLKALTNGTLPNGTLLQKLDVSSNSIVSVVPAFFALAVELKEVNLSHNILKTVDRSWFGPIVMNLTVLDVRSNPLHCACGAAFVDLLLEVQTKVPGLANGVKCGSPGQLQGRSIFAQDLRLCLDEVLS
The test is described as follows: SPR biosensor analysis of inhibitors on TLR9-CpG-DNA interaction. The following applies: for inhibition of binding of TLR9 to CpG-DNA: SPR, 200 nM TLR9, immobilized CpG-DNA 1668. Format: binding, murine. As for the experimental part:
Biotinylated CpG-DNA 1668 (SEQ ID NO:1) and non-CpG-DNA 1668GC (SEQ ID NO:3) were immobilized on streptavidin sensor chip flow cells 1 and 2, respectively.
FIG. 2B is a graph depicting SPR biosensor analysis of quinoquine (QC) on TLR9-PAMP interaction. Biotinylated CpG-DNA 1668 (SEQ ID NO:1) and non-CpG-DNA 1668GC (SEQ ID NO:3) were immobilized on streptavidin sensor chip flow cells 1 and 2, respectively. 200 nM TLR9 and indicated concentrations of quinoquine were injected and sensorgrams recorded.
SPR biosensor analysis. Real-time binding of TLR9 or TLR2 was measured by surface plasmon resonance biosensor technology using the BiaCore X system (Uppsala, Sweden). For analysis of TLR9 and TLR2 interaction, biotinylated CpG-DNA and non-CpG-DNA, or biotinylated Pam3CysK4 and PHCK4, respectively, were loaded in running buffer (50 mM MES, 150 mM NaCl, 1 mM MgCl2 at pH 6.5) on SA chips precoated with streptavidin (Biacore AB, Uppsala, Sweden). Non-CpG-DNA or PHCK4 (Wiesmuller K H et al. (1989) Vaccine 7:29-33) served as reference for CpG-DNA and Pam3CysK4 interaction (structure or sequence in Table 1). […] TLR proteins were introduced at 200 nM or as indicated in 40 μl running buffer at a flow rate of 10 μl/min. Binding was measured at 25° C. for 750 s (delay time 300 s). […] Sensorgrams were recorded and kinetic data were calculated by the BiaCore Evaluation program (Biacore, version 3.0.1). Regeneration of the chip was performed by injection of 10 μl 50 mM NaOH, 1 M NaCl and extensive re-equilibration.
A general note: Surface plasmon resonance follows binding to a sensor surface in real time, without labels.

Test [2] relates to murine TLR9. In words: NF-κB luciferase assay, HEK 293 cells transfected with murine TLR9. Format: cell-based. Conditions: TLR9-transfected HEK 293 cells, 1 μM CpG-DNA, inhibitor added 15 min prior to stimulation. The protocol: Activation is expressed as fold induction compared to no stimulation. NF-κB luciferase assay. For monitoring transient NF-κB activation, 3×10^6 HEK 293 cells were electroporated at 200 volt and 950 μF with 20 ng of a NF-κB luciferase reporter plasmid (kindly provided by Patrick Baeuerle, Munich, Germany) and 1 μg mTLR2 (kindly provided by Tularik, Inc., South San Francisco, USA), mTLR9, or mTLR9-mut expression plasmid. Cells were seeded at 10^5 cells per well and after overnight culture stimulated with 1 μM phosphorothioated CpG-DNA 1668 (SEQ ID NO:1), 1 μM non-CpG-DNA 1668GC (SEQ ID NO:3), 1 μg/ml Pam[…][…] or 1 μg/ml PHCK4 for further 8 hours. […] Stimulated cells were lysed using reporter lysis buffer (Promega, Mannheim, Germany) and lysates were assayed for luciferase activity using a Berthold luminometer (Wildbad, Germany) according to the manufacturer's instruction.

Test [3] relates to murine TLR2. The test is described as follows: NF-κB luciferase assay, HEK 293 cells transfected with murine TLR2. The following applies: TLR2-transfected HEK 293 cells, 1 μg/ml Pam3Cys. It counts as cell-based.
For test [4], the target named is T2, mTLR2ect (TLR2-Pam3Cys interaction) (Mus musculus, UniProt Q9QUN7).
T2 construct: mTLR2ect (aa 1-587); made in house
T2 sequence (Q9QUN7 25-587): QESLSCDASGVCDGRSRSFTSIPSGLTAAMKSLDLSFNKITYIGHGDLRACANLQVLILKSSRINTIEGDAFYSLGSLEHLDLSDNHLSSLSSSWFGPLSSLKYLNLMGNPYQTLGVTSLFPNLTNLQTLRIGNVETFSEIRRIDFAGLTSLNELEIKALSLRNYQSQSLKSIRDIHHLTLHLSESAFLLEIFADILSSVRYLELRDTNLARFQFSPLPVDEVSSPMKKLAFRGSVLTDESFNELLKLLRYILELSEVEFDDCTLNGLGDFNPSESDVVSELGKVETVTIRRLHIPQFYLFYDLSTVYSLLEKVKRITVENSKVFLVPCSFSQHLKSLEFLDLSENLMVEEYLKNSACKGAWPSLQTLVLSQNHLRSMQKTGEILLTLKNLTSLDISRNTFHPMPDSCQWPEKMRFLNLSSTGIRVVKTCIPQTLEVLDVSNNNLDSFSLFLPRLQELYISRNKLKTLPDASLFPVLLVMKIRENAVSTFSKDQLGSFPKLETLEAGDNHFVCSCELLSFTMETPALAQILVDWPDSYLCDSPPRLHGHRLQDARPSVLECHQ
The test is described as follows: SPR biosensor analysis of TLR2-Pam3Cys binding. Set-up: species or system murine. The following applies: PHC as reference.

Ends that are not written are not given here. * marks the point of attachment. X1 = 2,3‑bis(palmitoyloxy)‑(2RS)‑propyl, CCCCCCCCCCCCCCCC(=O)OCC(C*)OC(=O)CCCCCCCCCCCCCCC; Palmitoyl = CCCCCCCCCCCCCCCC(=O)*

With `CCN(CC)CCCC(C)Nc1ccnc2cc(Cl)ccc12` (stereo not drawn) [chloroquine], in test [1], the “inhibition of binding of TLR9 to CpG-DNA” value was “dose-dependently inhibit”. In test [2], the “inhibition of TLR9-driven NF-κB activation” value is given as “dose-dependently inhibit”. In addition, the “inhibition of Pam3Cys-driven cellular activation” value in test [3] is given as “inhibited neither”.

For the compound `CCN(CC)CCCC(C)Nc1c2ccc(Cl)cc2nc2ccc(OC)cc12` (stereo not drawn) [quinacrine], the “potency in blocking TLR9-CpG-DNA interaction and cellular activation, compared with chloroquine” value in test [1] (SPR and TLR9-transfected HEK 293 cells) is on record as “more potent”. For the same compound, the “inhibition of binding of TLR9 to CpG-DNA” value in test [1] is “dose-dependently inhibit”. Also, the “inhibition of TLR2-Pam3Cys binding” value in test [4] (200 nM TLR2, immobilized Pam3Cys) is given as “inhibited neither”. For the same compound, the “inhibition of TLR9-driven NF-κB activation” value in test [2] is on record as “dose-dependently inhibit”. The “inhibition of Pam3Cys-driven cellular activation” value in test [3] is listed as “inhibited neither”.

Consider “S-(2,3-bis(palmitoyloxy)-(2-RS)-propyl)-N-palmitoyl-(R)-Cys-(S)-Ser-(S)-Lys(4) (Palmitoyl-C(X1)SKKKK; also: biotinylated (site not given here)) [Pam3Cys]”, for which the “Binding of TLR2 to Pam3Cys” value in test [4] was “specific”.
